# Values of other authors, collected in patent US20120129696A1, “METHOD FOR INCREASING THE LEVEL OF FREE AMINO ACIDS IN STORAGE TISSUES OF PERENNIAL PLANTS” (priority 2009, published 2012).
# Test system: wheat plants
compound,measurement,setting,value
COC(=O)N(OC)c1ccccc1COc1ccn(-c2ccc(Cl)cc2)n1 [pyraclostrobin],"relative content of protein and C/N-ratios, control compared to treated plants",,neither the relative content of protein nor C/N-ratios were different
same,persistence of enhancement of nitrate reduction,after a single application at rates normally used for fungal control at the field site,3 nights
same,nitrite and ammonia in the leaves following application,rates normally used for fungal control at the field site,accumulated
